In US20240368139A1, “NOVEL MODULATORS OF EHMT1 AND EHMT2 AND THERAPEUTIC USE THEREOF” (Tango Therapeutics, Inc., priority 2021, published 2024):

What was measured:
H3K9me2 in HCT116 cells = assay: HCT116 H3K9me2 in-cell western assay; type: cell-based; conditions: Homo sapiens, HCT-116, 72 h, HCT116 cells, 72 hours incubation; read-out: H3K9me2 ICW IC50
From the text: HCT116 cell line was purchased from ATCC (Manassas, VA, USA). […] Penicillin-Streptomycin and heat inactivated fetal bovine serum were purchased from Hyclone (Logan, UT, USA). DPBS, Corning^R were purchased from VWR (Radnor, PA, USA). Triton′ X-100 was purchased from Sigma (St. Louis, MO, USA). Intercept blocking buffer, DRAQ5, Licor Odyssey Infrared Scanner were purchased from Licor Biosciences (Lincoln, NB, USA). Plate washer was purchased from BioTek (Winooski, VT, USA). […] 16% Paraformaldehyde was purchased from Electron Microscopy Sciences (Hatfield, PA, USA). HCT116 cells were maintained in complete growth medium (RPMI supplemented with 10% heat inactivated fetal bovine serum, 1% Penicillin-Streptomycin) and cultured at 37° C. under 5% CO2. N^2-(4-methoxy-3-(3-(pyrrolidin-1-yl)propoxy)phenyl)-N^4,6-dimethyl]pyrimidine-2,4-diamine (synthesis disclosed in International Application WO2017181177A1) was used as a control compound.
HCT116 cells (ATCC) were trypsinized, counted and seeded in assay medium (RPMI supplemented with 10% heat inactivated fetal bovine serum, 1% Penicillin-Streptomycin) at a concentration of 2,000 cells per well to a 384-well cell culture plate with compounds in 50 μl per well. Plates were incubated with at 37° C. under 5% CO2 for 72 hours. After the incubation, 50 μl per well of 8% paraformaldehyde in PBS was added to the plates and incubated at room temperature for 20 minutes. Plates were transferred to a BioTek (EL406) plate washer and washed 5 times with 110 μl per well of wash buffer (1×PBS containing 0.1% Triton X-100). The plates were next blocked with 50 μl of Intercept blocking buffer for 1 hour at room temperature. Blocking buffer was removed and 30 μl per well of monoclonal primary antibody of H3K9me2 (CST) diluted 1:200 in Intercept blocking buffer were added and plates were incubated overnight at 4° C. The plates were then washed 5 times with 110 μl per well of wash buffer (1×PBS containing 0.1% Triton X-100). Next 30 μl per well of secondary was added (1:400 800 CW goat anti-rabbit IgG in blocking buffer) with 1:1000 DRAQ5 in blocking buffer and incubated for 2 hours at room temperature. The plates were washed 5 times with 110 μl per well of wash buffer (1×PBS containing 0.1% Triton X-100) then with 100 μl per well of water once. Plates were allowed to dry at room temperature then imaged on a Licor Odyssey Infrared Scanner which measured integrated intensity at 700 nm and 800 nm wavelength. Both 700 and 800 channels were scanned.
The average of the ratio values (800 nm/700 nm) for each well was calculated and used to determine the percentage for each test well in the plate. Compounds were serially diluted two-fold in 0.1% DMSO for a total of 10 test concentrations beginning at 10 μM. IC50 curves were generated using duplicate wells per concentration of compound. […] IC50 values were calculated using a non-linear regression of Prism.

human EHMT1 982-1266 = target: T1, human EHMT1 982-1266 (Homo sapiens, UniProt Q9H9B1); assay: EHMT1 enzyme assay on histone peptide substrate (3H-SAM SPA); conditions: EHMT1 IC50, recombinant human EHMT1 982-1266, histone peptide substrate
T1 sequence (Q9H9B1 982-1266): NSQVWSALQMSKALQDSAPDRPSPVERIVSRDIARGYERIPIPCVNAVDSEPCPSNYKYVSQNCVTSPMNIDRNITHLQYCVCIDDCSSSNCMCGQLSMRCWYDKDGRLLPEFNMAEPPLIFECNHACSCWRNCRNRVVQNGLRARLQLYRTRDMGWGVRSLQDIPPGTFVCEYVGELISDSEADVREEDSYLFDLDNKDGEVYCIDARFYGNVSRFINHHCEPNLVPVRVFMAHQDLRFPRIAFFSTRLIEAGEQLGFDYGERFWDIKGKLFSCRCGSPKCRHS

human EHMT2 913-1193 = target: T2, human EHMT2 913-1193 (Homo sapiens, UniProt Q96KQ7); assay: EHMT2 enzyme assay on histone peptide substrate (3H-SAM SPA); conditions: EHMT2 IC50, recombinant human EHMT2 913-1193, histone peptide substrate
T2 sequence (Q96KQ7 913-1193): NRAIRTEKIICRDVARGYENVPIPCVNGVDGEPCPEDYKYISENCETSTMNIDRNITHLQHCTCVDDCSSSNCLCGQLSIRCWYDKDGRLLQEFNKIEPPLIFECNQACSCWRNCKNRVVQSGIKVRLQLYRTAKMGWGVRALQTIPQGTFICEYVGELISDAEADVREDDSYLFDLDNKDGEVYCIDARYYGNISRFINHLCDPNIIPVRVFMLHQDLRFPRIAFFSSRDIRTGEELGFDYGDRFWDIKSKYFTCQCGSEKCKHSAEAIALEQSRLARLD

IC50 (H3K9me2 in HCT116 cells) [nM]	IC50 (human EHMT1 982-1266) [nM]	IC50 (human EHMT2 913-1193) [nM]	Compound
100 to 500	< 100	100 to 500	CNc1cc(C)nc(Nc2cc3c(c(C4=C[C@@H]5CNC[C@@H]5C4)c2F)OCC3)n1 (racemic) [Compound 359, N2-[7-(1,2,3,3a,6,6a-hexahydrocyclopenta[c]pyrrol-5-yl)-6-fluoro-2,3-dihydrobenzofuran-5-yl]-N4,6-dimethyl-pyrimidine-2,4-diamine]
100 to 500	100 to 500	100 to 500	CNc1cc(C)nc(Nc2cc3c(c(C4=CCNCC(O)C4)c2C)OCC3)n1 (single isomer, unassigned) [Compound 358]
100 to 500	100 to 500	500 to 2000	CNc1cc(C)nc(Nc2cc3c(c(C4=CCN(C)CC(O)C4)c2C)OCC3)n1 (single isomer, unassigned) [Compound 375]
< 100	< 100	100 to 500	CNc1cc(C)nc(Nc2cc3c(c(C4=CCNCC(O)C4)c2Cl)OCC3)n1 (single isomer, unassigned) [Compound 376]
< 100	< 100	< 100	CNc1cc(C)nc(Nc2cc3c(c(C4=CCNC(C)CC4)c2C)OCC3)n1 (single isomer, unassigned) [Compound 383]
< 100	< 100	< 100	CNc1cc(C)nc(Nc2cc3c(c(C4=CCNCC(O)C4)c2F)OCO3)n1 (single isomer, unassigned) [Compound 428]
< 100	< 100	100 to 500	CNc1cc(C)nc(Nc2cc3c(c(C4=CCC(N)CC4)c2F)OCC3)n1 (single isomer, unassigned) [Compound 435]
< 100	< 100	100 to 500	CNc1cc(C)nc(Nc2cc3c(c(C4=CCNC[C@H](O)C4)c2F)OC[C@H]3C)n1 (stereo in doubt) [Compound 398, rel-(3R)-5-[rel-(3S)-6-fluoro-3-methyl-5-[[4-methyl-6-(methylamino)pyrimidin-2-yl]amino]-2,3-dihydrobenzofuran-7-yl]-2,3,4,7-tetrahydro-1H-azepin-3-ol]
< 100	< 100	100 to 500	CNc1cc(C)nc(Nc2cc3c(c(C4=CCNC[C@H](O)C4)c2F)OC[C@@H]3C)n1 (stereo in doubt) [Compound 401, rel-(3R)-5-[rel-(3R)-6-fluoro-3-methyl-5-[[4-methyl-6-(methylamino)pyrimidin-2-yl]amino]-2,3-dihydrobenzofuran-7-yl]-2,3,4,7-tetrahydro-1H-azepin-3-ol]
< 100	< 100	< 100	CNc1cc(C)nc(Nc2cc3c(c(C4=CCNC[C@@H](O)C4)c2F)OC[C@H]3C)n1 (stereo in doubt) [Compound 420, rel-(3S)-5-[rel-(3S)-6-fluoro-3-methyl-5-[[4-methyl-6-(methylamino)pyrimidin-2-yl]amino]-2,3-dihydrobenzofuran-7-yl]-2,3,4,7-tetrahydro-1H-azepin-3-ol]
< 100	< 100	< 100	CNc1cc(C)nc(Nc2cc3c(c(C4=CCNC[C@@H](O)C4)c2F)OC[C@@H]3C)n1 (stereo in doubt) [Compound 422, rel-(3S)-5-[rel-(3R)-6-fluoro-3-methyl-5-[[4-methyl-6-(methylamino)pyrimidin-2-yl]amino]-2,3-dihydrobenzofuran-7-yl]-2,3,4,7-tetrahydro-1H-azepin-3-ol]

The remaining lines, values behind:

Compound	IC50 (H3K9me2 in HCT116 cells) [nM]	IC50 (human EHMT1 982-1266) [nM]	IC50 (human EHMT2 913-1193) [nM]
CNc1cc(C)nc(Nc2cc3c(c(C4=C[C@H]5CNC[C@H]5C4)c2)OCC3)n1 (racemic) [Compound 133, N2-[7-(1,2,3,3a,6,6a-hexahydrocyclopenta [c]pyrrol-5-yl)-2,3-dihydrobenzofuran-5-yl]-N4,6-dimethyl-pyrimidine-2,4-diamine]	500 to 2000	100 to 500	500 to 2000
CNc1cc(C)nc(Nc2cc3c(c(C4=C[C@H]5CNC[C@H]5C4)c2)OC(F)(F)O3)n1 (racemic) [Compound 143, N2-[7-(1,2,3,3a,6,6a-hexahydrocyclopenta[c]pyrrol-5-yl)-2,2-difluoro-1,3-benzodioxol-5-yl]-N4,6-dimethyl-pyrimidine-2,4-diamine]	> 2000	100 to 500	> 2000
CNc1cc(C)nc(Nc2cc3c(c(C4=CCN(C)CC(O)C4)c2F)OCC3)n1 (single isomer, unassigned) [Compound 352]	< 100	< 100	< 100
CNc1cc(C)nc(Nc2cc3c(c(C4=CCNCC(O)C4)c2C)OCCC3)n1 (single isomer, unassigned) [Compound 355]	< 100	< 100	< 100
CNc1cc(C)nc(Nc2cc(OCCCN3CCCC3)c3occc3c2)n1 [Compound 102, N4,6-dimethyl-N2-[7-(3-pyrrolidin-1-ylpropoxy)benzofuran-5-yl]pyrimidine-2,4-diamine]	500 to 2000	100 to 500	500 to 2000
CNc1cc(C2CCCCC2)nc(Nc2cc3c(c(OCCCN4CCCC4)c2)OCC3)n1 [Compound 104, 6-cyclohexyl-N4-methyl-N2-[7-(3-pyrrolidin-1-ylpropoxy)-2,3-dihydrobenzofuran-5-yl]pyrimidine-2,4-diamine]	> 2000	> 2000	> 2000
CNc1cc(C)nc(Nc2cc3c(c(C4CCCNCC4)c2)OCC3)n1 (stereo not shown) [Compound 106, N2-[7-(azepan-4-yl)-2,3-dihydrobenzofuran-5-yl]-N4,6-dimethyl-pyrimidine-2,4-diamine]	100 to 500	500 to 2000	500 to 2000
CNc1cc(C)nc(Nc2cc3c(c(C4CCCN(C)CC4)c2)OCC3)n1 (stereo not shown) [Compound 107, N4,6-dimethyl-N2-[7-(1-methylazepan-4-yl)-2,3-dihydrobenzofuran-5-yl]pyrimidine-2,4-diamine]	100 to 500	100 to 500	500 to 2000
CNc1nc(Nc2cc3c(c(OCCCN4CCCC4)c2)OCC3)nc(C)c1F [Compound 108, 5-fluoro-N4,6-dimethyl-N2-[7-(3-pyrrolidin-1-ylpropoxy)-2,3-dihydrobenzofuran-5-yl]pyrimidine-2,4-diamine]	> 2000	> 2000	> 2000
Cc1cc(N(C)C)nc(Nc2cc3c(c(C4=CCN(C)CCC4)c2)OCC3)n1 [Compound 139]	500 to 2000	–	–
CNc1cc(C)nc(Nc2cc3c(c(C4=CCNC(C)CC4)c2F)OCC3)n1 (stereo not shown) [Compound 202]	< 100	–	–
[2H]Cc1cc(NC([2H])([2H])[2H])nc(Nc2cc3c(c(C4=CCNCCC4)c2F)OCC3)n1 [Compound 249]	< 100	–	–
[2H]C([2H])([2H])Nc1cc(C)nc(Nc2cc3c(c(C4=CCNCCC4)c2F)OCC3)n1 [Compound 253]	< 100	–	–
